Several values for one entry are separate records, joined by “and”; a condition that tells them apart may be missing. Identical values can stand only once.
What was measured:
[1] = Colorimetric alkylation rate constant assay with TNB^2− as non-specific thiol; assay type: physicochemical; parameters: second-order: unit not given here; details: for remaining [B]: in µM
[2] = Colorimetric alkylation rate constant assay with thiol N1; assay type: physicochemical; details: for remaining [A]: N1 from calibration curve (N1 in uM); for remaining [A] / remaining [B]: in µM
[3] = Time 2891 sec, [B]0 = 250, Replicates 1-3
[4] = Time 3071 sec, [B]0 = 250, Replicates 1-3
[5] = Time 3252 sec, [B]0 = 250, Replicates 1-3
[6] = Time 3433 sec, [B]0 = 250, Replicates 1-3
[7] = Time 3613 sec, [B]0 = 250, Replicates 1-3

remaining [B] ([1]; Replicate 1, 723 sec, [B]0 = 250): 243.209 | remaining [B] ([1]; Replicate 1, 903 sec, [B]0 = 250): 242.478 | remaining [B] ([1]; Replicate 1, 1084 sec, [B]0 = 250): 241.798 | remaining [B] ([1]; Replicate 1, 1265 sec, [B]0 = 250): 241.104 | remaining [B] ([1]; Replicate 1, 1445 sec, [B]0 = 250): 240.437 | remaining [B] ([1]; Replicate 1, 1626 sec, [B]0 = 250): 239.756 | remaining [B] ([1]; Replicate 1, 1806 sec, [B]0 = 250): 239.088 | remaining [B] ([1]; Replicate 1, 1988 sec, [B]0 = 250): 238.42 | remaining [B] ([1]; Replicate 1, 2168 sec, [B]0 = 250): 237.79 | remaining [B] ([1]; Replicate 1, 2349 sec, [B]0 = 250): 237.085 | remaining [B] ([1]; Replicate 1, 2530 sec, [B]0 = 250): 236.392 | remaining [B] ([1]; Replicate 1, 2710 sec, [B]0 = 250): 235.737 | remaining [B] ([1]; Replicate 2, 542 sec, [B]0=250): 242.118 | remaining [B] ([1]; Replicate 2, 723 sec, [B]0=250): 241.425 | remaining [B] ([1]; Replicate 2, 903 sec, [B]0=250): 240.732 | remaining [B] ([1]; Replicate 2, 1084 sec, [B]0=250): 240.077 | remaining [B] ([1]; Replicate 2, 1265 sec, [B]0=250): 239.371 | remaining [B] ([1]; Replicate 2, 1445 sec, [B]0=250): 238.754 | remaining [B] ([1]; Replicate 2, 1626 sec, [B]0=250): 238.023 | remaining [B] ([1]; Replicate 2, 1806 sec, [B]0=250): 237.355 | remaining [B] ([1]; Replicate 2, 1988 sec, [B]0=250): 236.687 | remaining [B] ([1]; Replicate 2, 2168 sec, [B]0=250): 236.019 | remaining [B] ([1]; Replicate 2, 2349 sec, [B]0=250): 235.377 | remaining [B] ([1]; Replicate 2, 2530 sec, [B]0=250): 234.722 | remaining [B] ([1]; Replicate 2, 2710 sec, [B]0=250): 234.041 | remaining [B] ([1]; Replicate 3, 723 sec, [B]0=250): 243.07 | remaining [B] ([1]; Replicate 3, 903 sec, [B]0=250): 242.352 | remaining [B] ([1]; Replicate 3, 1084 sec, [B]0=250): 241.558 | remaining [B] ([1]; Replicate 3, 1265 sec, [B]0=250): 240.878 | remaining [B] ([1]; Replicate 3, 1445 sec, [B]0=250): 240.248 | remaining [B] ([1]; Replicate 3, 1626 sec, [B]0=250): 239.542 | remaining [B] ([1]; Replicate 3, 1806 sec, [B]0=250): 238.786 | remaining [B] ([1]; Replicate 3, 1988 sec, [B]0=250): 238.244 | remaining [B] ([1]; Replicate 3, 2168 sec, [B]0=250): 237.513 | remaining [B] ([1]; Replicate 3, 2349 sec, [B]0=250): 236.921 | remaining [B] ([1]; Replicate 3, 2530 sec, [B]0=250): 236.215 | remaining [B] ([1]; Replicate 3, 2710 sec, [B]0=250): 235.51 | remaining [B] [1, 3]: 234.892 and 235.081 and 233.424 | remaining [B] [1, 4]: 234.187 and 234.35 and 232.743 | remaining [B] [1, 5]: 233.519 and 233.72 and 232.088 | remaining [B] [1, 6]: 232.889 and 233.04 and 231.445 | remaining [B] [1, 7]: 232.246 | remaining [A] ([2]; Replicate 1, time 576 sec): 78.3846 | remaining [B] ([2]; Replicate 1, time 576 sec, [B]0 = 250): 224.265 | remaining [A] ([2]; Replicate 1, time 606 sec): 77.4156 | remaining [B] ([2]; Replicate 1, time 606 sec, [B]0 = 250): 223.296 | remaining [A] ([2]; Replicate 2, time 576 sec): 78.0283 | remaining [B] ([2]; Replicate 2, time 576 sec, [B]0=250): 224.887 | remaining [A] ([2]; Replicate 2, time 606 sec): 77.1496 | remaining [B] ([2]; Replicate 2, time 606 sec, [B]0=250): 224.008 | remaining [A] ([2]; Replicate 3, time 576 sec): 79.3863 | remaining [B] ([2]; Replicate 3, time 576 sec, [B]0=250): 224.839 | remaining [A] ([2]; Replicate 3, time 606 sec): 78.4394 | remaining [B] ([2]; Replicate 3, time 606 sec, [B]0=250): 223.892 | remaining [B] ([2]; time 0 sec, [B]0 = 250, replicates 1-3): 247.294 and 246.181 and 246.372 | remaining [B] ([2]; time 30 sec, [B]0 = 250, replicates 1-3): 245.834 and 244.471 and 245.125 | remaining [B] ([2]; time 60 sec, [B]0 = 250, replicates 1-3): 244.264 and 243.246 and 243.566 | remaining [B] ([2]; time 91 sec, [B]0 = 250, replicates 1-3): 243.074 and 241.878 and 242.29 | remaining [B] ([2]; time 121 sec, [B]0 = 250, replicates 1-3): 241.802 and 240.652 and 241.043 | remaining [B] ([2]; time 151 sec, [B]0 = 250, replicates 1-3): 240.639 and 239.37 and 239.711 | remaining [B] ([2]; time 182 sec, [B]0 = 250, replicates 1-3): 239.367 and 238.23 and 238.549 | remaining [B] ([2]; time 212 sec, [B]0 = 250, replicates 1-3): 238.15 and 237.033 and 237.472 | remaining [B] ([2]; time 242 sec, [B]0 = 250, replicates 1-3): 236.878 and 235.893 and 236.139 | remaining [B] ([2]; time 273 sec, [B]0 = 250, replicates 1-3): 235.688 and 234.696 and 235.147 | remaining [B] ([2]; time 303 sec, [B]0 = 250, replicates 1-3): 234.525 and 233.67 and 234.042 | remaining [B] ([2]; time 333 sec, [B]0 = 250, replicates 1-3): 233.361 and 232.444 and 232.88 | remaining [B] ([2]; time 364 sec, [B]0 = 250, replicates 1-3): 232.279 and 231.447 and 231.944 | remaining [B] ([2]; time 394 sec, [B]0 = 250, replicates 1-3): 231.17 and 230.25 and 230.782 | remaining [B] ([2]; time 424 sec, [B]0 = 250, replicates 1-3): 230.115 and 229.224 and 229.847 | remaining [B] ([2]; time 454 sec, [B]0 = 250, replicates 1-3): 228.924 and 228.283 and 228.77 | remaining [B] ([2]; time 485 sec, [B]0 = 250, replicates 1-3): 227.977 and 227.229 and 227.834 | remaining [B] ([2]; time 515 sec, [B]0 = 250, replicates 1-3): 226.922 and 226.203 and 226.814 | remaining [B] ([2]; time 545 sec, [B]0 = 250, replicates 1-3): 225.813 and 225.205 and 225.879
Structure (SMILES): O=C(CCl)N1CCOCC1 [Compound C4]
second-order [1, 3]: 0.0007509 and 0.0006764 and 0.0006669 | second-order [1, 4]: 0.000786 and 0.0007119 and 0.0007036 | second-order [1, 5]: 0.0008202 and 0.000746 and 0.0007357 | second-order [1, 6]: 0.0008541 and 0.0007785 and 0.0007706 | second-order [1, 7]: 0.0008877 and 0.0008119 and 0.0008054 | second-order ([1]; Time 3794 sec, [B]0 = 250, Replicates 1-3): 0.0009231 and 0.0008424 and 0.0008418 | second-order ([1]; Time 3974 sec, [B]0 = 250, Replicates 1-3): 0.0009567 and 0.0008773 and 0.0008752 | second-order ([1]; Time 4155 sec, [B]0 = 250, Replicates 1-3): 0.00099 and 0.0009118 and 0.0009131 | second-order ([1]; Time 4336 sec, [B]0 = 250, Replicates 1-3): 0.001024 and 0.0009453 and 0.0009474 | second-order ([1]; Time 4516 sec, [B]0 = 250, Replicates 1-3): 0.00106 and 0.0009785 and 0.000984 | second-order ([1]; Time 4697 sec, [B]0 = 250, Replicates 1-3): 0.001096 and 0.001013 and 0.001019 | second-order ([1]; Time 4878 sec, [B]0 = 250, Replicates 1-3): 0.001128 and 0.001047 and 0.001054 | second-order ([1]; Time 5058 sec, [B]0 = 250, Replicates 1-3): 0.001163 and 0.00108 and 0.001089 | second-order ([1]; Time 5239 sec, [B]0 = 250, Replicates 1-3): 0.001202 and 0.001118 and 0.001125 | second-order ([1]; Time 5419 sec, [B]0 = 250, Replicates 1-3): 0.001235 and 0.001153 and 0.001158 | second-order ([1]; Time 5600 sec, [B]0 = 250, Replicates 1-3): 0.001269 and 0.001184 and 0.001195 | second-order ([1]; Time 5781 sec, [B]0 = 250, Replicates 1-3): 0.001306 and 0.001219 and 0.001231 | second-order ([1]; Time 5961 sec, [B]0 = 250, Replicates 1-3): 0.001339 and 0.001252 and 0.001269 | second-order ([2]; Replicate 1, time 576 sec, second-order plot value): 0.001202 | second-order ([2]; Replicate 1, time 606 sec, second-order plot value): 0.001257 | second-order ([2]; Replicate 2, time 576 sec, second-order plot value): 0.001179 | second-order ([2]; Replicate 2, time 606 sec, second-order plot value): 0.00123 | second-order ([2]; Replicate 3, time 576 sec, second-order plot value): 0.001164 | second-order ([2]; Replicate 3, time 606 sec, second-order plot value): 0.001217 | second-order ([2]; time 0 sec, replicates 1-3): 0.0001443 and 0.0001055 and 0.0001506 | second-order ([2]; time 30 sec, replicates 1-3): 0.0001956 and 0.0001641 and 0.0002207 | second-order ([2]; time 60 sec, replicates 1-3): 0.0002611 and 0.0002284 and 0.000272 | second-order ([2]; time 91 sec, replicates 1-3): 0.0003157 and 0.0002781 and 0.0003304 | second-order ([2]; time 121 sec, replicates 1-3): 0.0003702 and 0.0003322 and 0.0003836 | second-order ([2]; time 151 sec, replicates 1-3): 0.0004294 and 0.0003825 and 0.0004404 | second-order ([2]; time 182 sec, replicates 1-3): 0.0004821 and 0.0004386 and 0.0004918 | second-order ([2]; time 212 sec, replicates 1-3): 0.0005317 and 0.0004932 and 0.0005467 | second-order ([2]; time 242 sec, replicates 1-3): 0.0005943 and 0.0005514 and 0.0005999 | second-order ([2]; time 273 sec, replicates 1-3): 0.0006417 and 0.0006068 and 0.0006568 | second-order ([2]; time 303 sec, replicates 1-3): 0.0006954 and 0.000662 and 0.0007064 | second-order ([2]; time 333 sec, replicates 1-3): 0.0007529 and 0.0007182 and 0.0007667 | second-order ([2]; time 364 sec, replicates 1-3): 0.0007999 and 0.0007714 and 0.0008167 | second-order ([2]; time 394 sec, replicates 1-3): 0.0008594 and 0.0008269 and 0.0008777 | second-order ([2]; time 424 sec, replicates 1-3): 0.000908 and 0.0008806 and 0.000931 | second-order ([2]; time 454 sec, replicates 1-3): 0.000965 and 0.0009423 and 0.0009806 | second-order ([2]; time 485 sec, replicates 1-3): 0.001015 and 0.0009923 and 0.001037 | second-order ([2]; time 515 sec, replicates 1-3): 0.001071 and 0.001049 and 0.001093 | second-order ([2]; time 545 sec, replicates 1-3): 0.001123 and 0.001109 and 0.001148

Source: publication PMC12669040, “Tumour-specific STING agonist synthesis via a two-component prodrug system” (Nature Chemistry, 2025)
